Assay results reported in article PMC8952231 (Pharmaceutics, 2022).

Legend:
[1] = tested on: cytochrome P450 3A4 enzyme; settings: in humans; cited from earlier work
[2] = Randomized, open-label, single-dose crossover pharmacokinetic study; plasma concentrations by LC-MS/MS, non-compartmental analysis; format: in vivo, human; settings: for Intra-Participant CV% of AUCinf / Intra-Participant CV% of AUClast / Intra-Participant CV% of Cmax: IC vs. FCDP crossover; for AUC(0-inf) / AUC(0-t) / Cmax / Tmax / half-life: male, human, plasma
From the text: Sixty-three healthy male volunteers (age, 19–45 years; body weight > 50 kg) agreed to participate in the study and signed a written informed consent form. Only male participants were recruited to avoid the potential risk of pregnancy. The participants were considered healthy after a detailed physical examination by physicians involving 12-lead electrocardiographs (ECG), vital sign assessments, and laboratory evaluations, including blood chemistry, hematology, and urinalysis. […] The study protocol was approved (IRB No.2019AN0538, clinicaltrial.gov; NCT05066516) by the Institutional Review Board of Anam Hospital, Korea University Medical Center (Seoul, Korea), and all procedures were conducted following the principles described in the Declaration of Helsinki and Good Clinical Practice guidelines.
This study was conducted as a randomized, open-label, single-dose crossover study. All participants were randomly allocated to group A (period 1: individual components (ICs), period 2: FCDP) or group B (period 1: FCDP, period 2: ICs). […] All medications were biopharmaceutical classification system (BCS) III drugs with high solubility and low permeability. […] For FCDP, microcrystalline cellulose and copovidone were used as major excipients.
On day 1 (the day of each drug administration), serial blood samples were drawn immediately before (0 h) and 0.25, 0.5, 0.75, 1, 1.5, 2, 2.5, 3, 4, 6, 8, 12, 24, 48, and 72 h after each dosing to assess the pharmacokinetics of each drug. The collected samples were centrifuged (at 1977× g, 4 °C) for 15 min, and the extracted plasma samples were stored frozen at −60 °C until they were analyzed.
For dapagliflozin analysis, 100 µL plasma was added to a glass tube containing an internal standard (10 µL of 1 mg/mL dapagliflozin-d5) and 1 mL methanol. The samples were vigorously vortexed and centrifuged at 10,770× g for 3 min. Next, 100 µL of the upper layer was transferred to a polypropylene tube with 10 µL of internal standard (dapagliflozin-d5, Toronto Research, Toronto, ON, Canada) and 300 µL of acetonitrile. After vigorous vortexing and centrifugation at 2191× g for 1 min, 200 µL of the upper layer was transferred to another polypropylene tube with 200 µL of ammonium acetate (0.1%, w/v). A 20 µL aliquot of the solution was finally injected into the LC–MS/MS system; 0.1% ammonium acetate and methanol were used for the mobile phase. The gradient elution mode was applied (methanol proportion ranging between 57.5% and 90% in 5 min) with a constant flow rate of 0.4 mL/min. Dapagliflozin was quantified using the multiple reaction monitoring (MRM) mode. The produced transitions were m/z 426.47 → 166.84 for dapagliflozin and m/z 431.50 → 166.85 for dapagliflozin-d5. The linear function of dapagliflozin concentration ranged from 1 to 400 ng/mL with regression correlation coefficients of the calibration curves (R) greater than 0.999. The intra-day and inter-day CV values were below 15%. The lower limit of quantification (LLOQ) using this method was 1 ng/mL.
Linagliptin-^13C-d3 (TLC Pharmaceutical Standards Ltd., Newmarket, ON, Canada) was used as the internal standard, and 100 µL of plasma was added to a glass tube containing the internal standard (10 µL of 1 mg/mL linagliptin-^13C-d3) and 1 mL methanol. The samples were vigorously vortexed and centrifuged at 10,770× g for 3 min. Next, 100 µL of the upper layer was transferred to a polypropylene tube with 10 µL of the internal standard and 400 µL of methanol. After vigorous vortexing and centrifugation at 2191× g for 1 min, 100 µL of the upper layer was transferred to another polypropylene tube containing 300 µL of formic acid in distilled water (0.1%, w/v). A 20 µL aliquot of the solution was finally injected into the LC–MS/MS system; 0.1% ammonium formate in distilled water and acetonitrile was used as the mobile phase. […] Linagliptin was quantified using MRM mode. […] The intra-day and inter-day CV values were <15%. The LLOQ with this method was 0.04 ng/mL. […]

[3] = cited from earlier work; for food effect: previous studies
P-gp = settings: cited from earlier work
SGLT2:SGLT1 receptor = settings: compared with empagliflozin; cited from earlier work
[4] = tested on: uridine diphosphate glucuronosyltransferase 1A9; settings: cited from earlier work
[5] = IC: co-administered single oral doses of Forxiga 10 mg and Trajenta 5 mg, fasted healthy males, 0 to 72 h, mean ± SD
[6] = IC: co-administered single oral doses of Forxiga 10 mg and Trajenta 5 mg, fasted healthy males, mean ± SD
[7] = IC: co-administered single oral doses of Forxiga 10 mg and Trajenta 5 mg, fasted healthy males, median (range)

Row | Intra-Participant CV% of AUCinf [2] [%] | Intra-Participant CV% of AUClast [2] [%] | Intra-Participant CV% of Cmax [2] [%] | AUC(0-inf) ([2]; po, 5 mg) [ng·h/mL] | AUC(0-t) ([2]; po, 5 mg) [ng·h/mL] | Cmax ([2]; po, 5 mg) [ng/mL] | Tmax ([2]; po, 5 mg) [h] | half-life ([2]; po, 5 mg) [min] | AUC(0-t) [2, 5] [ng·h/mL] | AUC(0-inf) [2, 6] [ng·h/mL] | Cmax [2, 6] [ng/mL] | half-life [2, 6] [min] | Tmax [2, 7] [h] | Compound | food effect [3] | also measured
1 | 12.67 | 7.96 | 27.58 | 268 ± 88 | 157 ± 35.9 | 4.2 ± 2.01 | 1.5 | 3260 ± 736 | 155 ± 30.4 | 266 ± 78.7 | 3.95 ± 1.42 | 3300 ± 816 | 2.5 | CC#CCn1c(N2CCC[C@@H](N)C2)nc2c1c(=O)n(Cc1nc(C)c3ccccc3n1)c(=O)n2C [linagliptin] | no possible food effect | substrate for cytochrome P450 3A4 enzyme [1]: known substrate; oral bioavailability [3]: approximately 30%; kidney excretion ([3]; human, in vivo): 5%; time to reach steady-state level ([3]; therapeutic dose (5 mg)): ≤ 4 days; P-gp inhibition (P-gp; at the therapeutic levels): does not inhibit P-gp; Km of P-gp associated transport (P-gp): 187 µM; substrate for P-glycoprotein (P-gp) (P-gp; in humans): known substrate
2 | 7.35 | 7.91 | 20.49 | 516 ± 98.3 | 466 ± 99.3 | 168 ± 42.1 | 0.75 | 766 ± 230 | 456 ± 92.8 | 500 ± 93.9 | 161 ± 42 | 680 ± 203 | 0.75 | CCOc1ccc(Cc2cc([C@@H]3O[C@H](CO)[C@@H](O)[C@H](O)[C@H]3O)ccc2Cl)cc1 [dapagliflozin] | no possible food effect | SGLT2:SGLT1 receptor selectivity (SGLT2:SGLT1 receptor): lower SGLT2:SGLT1 receptor selectivity; CL/F ([2]; FCDP: single oral dose IN-C009 (dapagliflozin 10 mg/linagliptin 5 mg), fasted healthy males, mean ± SD): 20.01 ± 3.6 L/h; CL/F [2, 6]: 20.67 ± 3.89 L/h; fraction metabolized by uridine diphosphate glucuronosyltransferase 1A9 [4]: approximately 65%; half-life (t1/2) [3]: 8.1 to 12.2 h; P-gp inhibitor status (P-gp; in vitro studies): not an inhibitor; P-gp substrate status (P-gp; in vitro studies): weak substrate
3 |  |  |  |  |  |  |  |  |  |  |  |  |  | N#C[C@@H]1C[C@@H]2C[C@@H]2N1C(=O)[C@@H](N)C12CC3CC(CC(O)(C3)C1)C2 [saxagliptin] |  | half-life, metabolite ([3]; metabolite of saxagliptin): 3.1 h
